Experimental findings from the supplement of paper PMC10307832 are described below.

Holding throughout (experiment): relative viability (nuclei count vs DMSO), 5 days (fraction); higher = more cells survive
Compound in the experiment “XMD13-2 + Palbociclib”: C1CC1C(=O)NC2=NNC3=C2C=CC(=C3)C4=CC(=CC=C4)C(=O)NC5CC5 [XMD13-2] + CC(=O)c1c(C)c2cnc(Nc3ccc(N4CCNCC4)cn3)nc2n(C2CCCC2)c1=O [Palbociclib] (partner 0.5 µM)
In outline: (§1)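 A single step with final 0.05% Triton X-100, 1% formaldehyde and 1 ug/ml Hoechst fixed the cells and stained nuclei 5 days after treatment. Lung cancer cell lines in 1536-well plates had been treated by pin tool the day after seeding with one drug alone or a fixed anchor-drug dose plus five library-drug doses (not always all listed) in √10 steps, and nuclei were counted on 4× images. Relative viability is the ratio of nuclei in treated wells to nuclei in vehicle wells, taken as the median of duplicate plates.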

Compound in the experiment “ALW-II-49-7 + Lapatinib”: Cc1ccc(C(=O)Nc2cccc(C(F)(F)F)c2)cc1Nc1cncc(C(N)=O)c1 [ALW-II-49-7] + CS(=O)(=O)CCNCc1ccc(-c2ccc3ncnc(Nc4ccc(OCc5cccc(F)c5)c(Cl)c4)c3c2)o1 [Lapatinib] (partner 2 µM)
Summed up: as §1

Compound in the experiment “ALW-II-49-7 + Bortezomib”: Cc1ccc(C(=O)Nc2cccc(C(F)(F)F)c2)cc1Nc1cncc(C(N)=O)c1 [ALW-II-49-7] + CC(C)C[C@H](NC(=O)[C@H](Cc1ccccc1)NC(=O)c1cnccn1)B(O)O [Bortezomib] (partner 0.002 µM)
In outline:
as §1

Compound in the experiment “Dasatinib + Foretinib”: Cc1nc(Nc2ncc(C(=O)Nc3c(C)cccc3Cl)s2)cc(N2CCN(CCO)CC2)n1 [Dasatinib] + COc1cc2c(Oc3ccc(NC(=O)C4(C(=O)Nc5ccc(F)cc5)CC4)cc3F)ccnc2cc1OCCCN1CCOCC1 [Foretinib] (partner 0.25 µM)
Summed up: as §1

As to UMC-11, the relative viability was determined as 0.356 with XMD13-2 + Palbociclib (first compound 0.05 µM); 0.313 with XMD13-2 + Palbociclib (first compound 0.1581 µM); 0.349 with XMD13-2 + Palbociclib (first compound 0.5 µM); 0.33 in the experiment with XMD13-2 + Palbociclib (first compound 1.581 µM); 0.334 in the experiment with XMD13-2 + Palbociclib (first compound 5 µM); 0.943 in the experiment with ALW-II-49-7 + Lapatinib (first compound 0.08 µM). The relative viability with ALW-II-49-7 + Lapatinib (first compound 0.253 µM) came out at 1.08; with ALW-II-49-7 + Lapatinib (first compound 0.8 µM), 0.998; with ALW-II-49-7 + Lapatinib (first compound 2.53 µM) it was 1.04; with ALW-II-49-7 + Lapatinib (first compound 8 µM), 0.806; with ALW-II-49-7 + Bortezomib (first compound 0.08 µM), 0.514; with ALW-II-49-7 + Bortezomib (first compound 0.253 µM), 0.786. Besides, the relative viability in the experiment with ALW-II-49-7 + Bortezomib (first compound 2.53 µM) worked out at 0.792; with ALW-II-49-7 + Bortezomib (first compound 8 µM), 0.521; with Dasatinib + Foretinib (first compound 0.005 µM), 0.912; with Dasatinib + Foretinib (first compound 0.01581 µM), 0.699; with Dasatinib + Foretinib (first compound 0.05 µM) it was 0.696; with Dasatinib + Foretinib (first compound 0.1581 µM) it was 0.379. Also, in the experiment with Dasatinib + Foretinib (first compound 0.5 µM), the relative viability came out at 0.276.
